Results on 1 compound are retold here after US4720497A, “6-purinyl N-/2-chloroethyl/carbamate and thiocarbamate and process for the preparation thereof” (SPOFA, Spojene Podniky pro Zdravotnickou Vyrobu, priority 1984, dated 1988).

For one test, the system named is Zajdel ascitic hepatoma. Description: Survival of rats with implanted Zajdel ascitic hepatoma (Example 5). The format is in vivo, female Wistar rats. The note with it: Wistar rats. From the text:
The antineoplastic activity of the compounds of the invention has been investigated by testing the compounds of the chemical group "in vivo" against experimental rodent tumors such as Crocker's sarcoma (S180), solid-type Ehrlich carcinoma (STE), kreb's ascites tumor (Kr2), all maintained in mice H, Gardner lymphosarcoma (LsG, C3H mice), P388 and L1210 leukemias (DBA2 mice), Zajdela ascites hapatoma (ZAH, Wistar rats), Yoshida ascites reticulosarcoma (Y, Wistar rats) and B16 melanoma (C57B16 mice) in experiments according to Jelinek, V. (Neoplasma 12, 469 (1969); ibid. 7, 146 (1960) and "in vitro" experiments using radioactive precursors of nucleic acids and proteins according to Miko, M. et al. (Cancer Res. 39, 4242 (1979); Neoplasma 26, 449 (1979); ibid. 16, 161--1969) with minor modifications (Mattern J.: Studies on the Drug Sensitivity of Short Term Cultured Tumor Cell Suspensions. In "Human Tumors in Short Term Culture" (Dendy, P. P. ed.), p. 301, Academic Press 1976). Therapeutic synergism has been studied by the method of Carter, W. H. et al. (cf. Cancer Res. 42, 2963--1982). […]

In the next test the test system is Crocker tumor (S180). In words: Antitumor activity against Crocker tumor (S180) in mice, tumor weight (Example 3). Type of test: in vivo, female mice H. To be noted: S180, mice H, p.o. 200 or 100 mg/kg once a day, eight times; day 14. From the text:
(§1) The antineoplastic activity of the compounds of the invention has been investigated by testing the compounds of the chemical group "in vivo" against experimental rodent tumors such as Crocker's sarcoma (S180), solid-type Ehrlich carcinoma (STE), kreb's ascites tumor (Kr2), all maintained in mice H, Gardner lymphosarcoma (LsG, C3H mice), P388 and L1210 leukemias (DBA2 mice), Zajdela ascites hapatoma (ZAH, Wistar rats), Yoshida ascites reticulosarcoma (Y, Wistar rats) and B16 melanoma (C57B16 mice) in experiments according to Jelinek, V. (Neoplasma 12, 469 (1969); ibid. 7, 146 (1960) and "in vitro" experiments using radioactive precursors of nucleic acids and proteins according to Miko, M. et al. (Cancer Res. 39, 4242 (1979); Neoplasma 26, 449 (1979); ibid. 16, 161--1969) with minor modifications (Mattern J.: Studies on the Drug Sensitivity of Short Term Cultured Tumor Cell Suspensions. In "Human Tumors in Short Term Culture" (Dendy, P. P. ed.), p. 301, Academic Press 1976). Therapeutic synergism has been studied by the method of Carter, W. H. et al. (cf. Cancer Res. 42, 2963--1982).
Sixty female mice H weighing approximately 20 g are divided into three groups: one control group and two experimental groups of 20 animals each. A lethal dose of the Crocker tumor (S180) homogenate is implanted subcutaneously in all the animals. […]

A further test relates to Ehrlich Carcinoma cells. In words: Cytotoxicity in vitro: 14C precursor incorporation in Ehrlich Carcinoma cells (Example 10). Type of test: cell-based. The note with it: for IC50: Ehrlich, read-out: ID50 (14C incorporation).
Text: as §1
The degree of influence on the incorporation of ^14 C from adenine-^14 C and valine-^14 C to the fraction of Ehrlich Carcinoma cells insoluble in trichloroacetic acid serves as the measure of cytotoxicity. The value ID50 is the concentration of a cytostatic that reduces the ^14 C incorporation down to 50% of the non-influencedcontrol cells.

In a further test the test system is tumor cells. Description: Comparison of cytotoxicity of Ia and Ib in vitro, precursor incorporation (Example 12). The format is cell-based.
Text: as §1
In analogous experiments, the degree of influence on the initial velocity of the incorporation of ^3 H from 5-iodo-2'-deoxy-(6-^3 H)uridine or that of ^14 C from a mixture of L-(U-^14 C)-aminoacids to the fraction of Yoshida ascitic tumor cells insoluble in trichloroacetic acid serves as the measure of cytotoxicity. The value IC50 is the concentration of a substance that reduces the initial velocity of the ^3 H or ^14 C incorporation down to 50% of the noninfluenced control cells.
In analogous experiments, the following values of IC50 were determined: […]

Where two headings read alike, the source gives them in different places.

Regarding `O=C(NCCCl)Sc1ncnc2nc[nH]c12` [Substance Ia, 6-[N-(2-Chloroethyl)carbamoyl]thiopurine], the “Period of survival (% of control)” value in the test on Zajdel ascitic hepatoma (p.o. 5 × 100 mg/kg) is listed as 117 % of control; with Zajdel ascitic hepatoma (p.o. 5 × 200 mg/kg), 126 % of control. For the same compound, the “average values of the tumor weight vs non-treated control” value with Crocker tumor (S180) is “Statistically significantly lower average values of the tumor weight”. Besides, the “effectiveness vs thioguanine and/or 6-mercaptopurine” value with Ehrlich Carcinoma cells (Ehrlich ascites carcinoma cells, in words) is reported as “more effective”. Besides, the IC50 was 94 µM in the test on Ehrlich Carcinoma cells (precursor adenine-14C), 155 µM in the test with Ehrlich Carcinoma cells (precursor valine-14C), 39 µM with tumor cells (precursor 5-iodo-2'-deoxy(6-3H)uridine (Example 12)) and 62 µM in the test on tumor cells (precursor L-(U-14C)aminoacids (Example 12)).
